In assay [1] the test system is HEK293. In words: cells. The conditions noted are these: Homo sapiens. In kind it is functional, cell-based.
Assay [2] is described as follows: cells. In kind it is functional, cell-based.
In another assay the test system is INS1. As to the kind of experiment: beta cell apoptosis inhibitors, cytokine rescue, dose response, luminescence, retest (AID 449756).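 Note: cell death triggered by IL-1 beta plus TNF-alpha plus IFN-gamma mixture; protective hits raise ATP signal compared with cytokine alone wells.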 In kind it is functional, cell-based. The conditions noted are these: Rattus norvegicus.
A short description of assay [3]: C. albicans growth with fluconazole, confirmation, fluorescence, retest (AID 2467). In kind it is functional, cell-based.
Assay [4] deals with HEK293. As to the kind of experiment: NOD1 signaling inhibitors, primary screen, cell-based, luminescence, uHTS (AID 1578). In kind it is functional. Particulars: Homo sapiens.
Assay [5] in a line: cells. In kind it is functional, cell-based. The source holds these as a separate data set.
The subject of assay [6] is HEK293. In words: cells. In kind it is functional, cell-based. Particulars: Homo sapiens. This is another data set of the same source.
For the next assay, the system named is Streptococcus. As to the kind of experiment: Group A Streptococcus viability loss, dose response, counter-screen for streptokinase expression inhibitor project, luminescence, BacTiterGlo (AID 1915).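 Note: potency for reduction of bacterial viability or growth.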 In kind it is functional, organism-based. In general terms: Counterscreens check selectivity or assay interference.
Assay [7] concerns HEK293. As to the kind of experiment: NOD2 signaling inhibitors in MDP-stimulated cells, cell-based, uHTS, luminescence (AID 2001). Type of assay: functional. Particulars: Homo sapiens.
The target of assay [8] is Nucleotide-binding oligomerization domain-containing protein 2 (Homo sapiens, UniProt Q9HC29). As to the kind of experiment: NOD2 signaling inhibitors, cell-based, luminescence, uHTS, HEK293 (AID 1566). In kind it is functional.
Assay [9] concerns Streptococcus sp. 'group A'. As to the kind of experiment: growth inhibition of control SK(-) GAS strain, dose response, counter-screen for streptokinase expression inhibitor project, luminescence, kanamycin, BacTiterGlo, confirmation (AID 1900). In kind it is functional, organism-based.
Assay [10] can be described thus: NIH-3T3 fibroblast cytotoxicity, dose response, cytotoxicity control, cell-based, fluorescence, Alamar Blue, secondary assay (AID 2327).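 Note: NIH-3T3 mouse fibroblasts cultured with fluconazole at 8 µg/mL.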 In kind it is functional. Background: The colour change of resazurin is a common sign of viable cells or microbes.
A short description of assay [11]: cytotoxicity toward NIH3T3 fibroblasts, dose response, counter-screen, cell-based, ATP luminescence, mouse fibroblasts (AID 2010).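 Note: cells exposed to compound for about 90 hours before reading.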 Type of assay: functional.
The next assay concerns the target T1, Cytochrome P450 1A2 (Homo sapiens, UniProt P05177).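 Note: PubChem cytochrome P450 panel assay, CYP1A2 panel member.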
T1 sequence (P05177 whole entry): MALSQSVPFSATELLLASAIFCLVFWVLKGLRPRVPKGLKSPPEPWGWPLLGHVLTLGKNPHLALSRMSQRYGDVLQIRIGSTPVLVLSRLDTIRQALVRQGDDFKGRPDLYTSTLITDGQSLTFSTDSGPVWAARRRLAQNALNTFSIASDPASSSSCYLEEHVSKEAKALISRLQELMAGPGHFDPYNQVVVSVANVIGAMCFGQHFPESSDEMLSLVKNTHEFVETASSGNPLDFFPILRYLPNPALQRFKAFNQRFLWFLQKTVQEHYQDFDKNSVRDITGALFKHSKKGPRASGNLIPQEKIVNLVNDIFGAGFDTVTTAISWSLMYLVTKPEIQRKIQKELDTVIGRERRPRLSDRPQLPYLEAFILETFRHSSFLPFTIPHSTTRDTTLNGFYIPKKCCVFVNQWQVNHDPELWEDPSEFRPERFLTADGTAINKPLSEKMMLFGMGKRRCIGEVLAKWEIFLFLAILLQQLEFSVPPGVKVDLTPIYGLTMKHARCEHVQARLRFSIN

In assay [12] the target is Induced myeloid leukemia cell differentiation protein Mcl-1 (Homo sapiens, UniProt Q07820). In kind it is functional.
Another assay addresses T2, Bcl-2-like protein 10 (Homo sapiens, UniProt Q9HD36).
T2 sequence (Q9HD36 whole entry): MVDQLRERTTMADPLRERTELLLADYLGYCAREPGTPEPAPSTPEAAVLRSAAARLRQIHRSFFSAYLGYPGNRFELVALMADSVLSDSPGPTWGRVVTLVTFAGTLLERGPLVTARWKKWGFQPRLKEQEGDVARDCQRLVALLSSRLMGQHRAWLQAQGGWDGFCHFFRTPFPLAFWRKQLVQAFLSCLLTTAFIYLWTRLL
As to the kind of experiment: displacers of TR3 peptide from Bcl-B, primary screen, selectivity assay for Bfl-1 inhibitor project, biochemical, fluorescence polarization, FITC-TR3 peptide (AID 748). (In general: In fluorescence polarisation assays a small probe gives low polarisation when free and higher when bound to something large.)

Assay [13] can be described thus: inhibitors of intracellular T. cruzi replication, confirmation, NIH3T3 host cells, beta-gal luminescence (AID 2044).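 Note: intracellular parasites grown in NIH/3T3 mouse fibroblasts as host cells; luminescent beta-galactosidase reporter signal from transgenic T. cruzi replicating inside host cells; inhibitors lower the luminescence signal.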 In kind it is functional, cell-based.
For assay [14], the target named is DNA dC->dU-editing enzyme APOBEC-3G (Homo sapiens, UniProt Q9HC16). As to the kind of experiment: Dose Response confirmation of small molecule APOBEC3G DNA Deaminase Inhibitors via a fluorescence-based single-stranded DNA deaminase assay. [Related pubchem assays (depositor defined):AID493012, AID493028]. Type of assay: functional.
The next assay deals with T3, Bcl-2-related protein A1 (Mus musculus, UniProt Q07440).
T3 sequence (Q07440 whole entry): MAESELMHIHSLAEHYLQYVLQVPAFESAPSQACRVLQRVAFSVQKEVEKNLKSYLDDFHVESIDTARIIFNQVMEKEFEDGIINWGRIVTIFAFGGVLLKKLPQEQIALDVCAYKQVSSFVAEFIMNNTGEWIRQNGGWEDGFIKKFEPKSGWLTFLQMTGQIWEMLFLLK
In kind it is functional.

The target of assay [15] is T4, Ubiquitin-conjugating enzyme E2 N (Homo sapiens, UniProt P61088).
T4 sequence (P61088 whole entry): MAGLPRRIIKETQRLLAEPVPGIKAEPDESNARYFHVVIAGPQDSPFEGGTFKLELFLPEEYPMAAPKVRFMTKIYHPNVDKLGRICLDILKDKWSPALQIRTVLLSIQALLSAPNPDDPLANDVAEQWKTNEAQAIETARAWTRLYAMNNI
In kind it is functional.

Assay [16] addresses T4, Ubiquitin-conjugating enzyme E2 N. Type of assay: functional. The source holds these as a separate data set.
The target of assay [17] is G-protein coupled receptor 55 (Homo sapiens, UniProt Q9Y2T6). As to the kind of experiment: GPR55 agonists via beta-arrestin recruitment, primary screen, imaging, U2OS cells, beta-arrestin-GFP redistribution (AID 1961). In kind it is functional.
The nature of assay [18]: HEp-2 cell cytotoxicity, dose response, cytotoxicity control for RSV inhibitor project, HTS (AID 2410). Type of assay: functional. The conditions noted are these: human respiratory syncytial virus.
For a further assay, the target named is Troponin, cardiac muscle (Homo sapiens, UniProt P19429+P45379+P63316). In words: Fluorescence-based biochemical high throughput dose response assay for activators of the calcium sensitivity of cardiac Regulated Thin Filaments (RTF). [Related pubchem assays (depositor defined):AID493008, AID493018, AID504382, AID504383]. In kind it is protein-complex assay.

Activity calls are given as the source filed them. A value given as a limit tells only on which side of the number the result lay.

Consider `COc1cccc(/C=N/NC(=O)c2c(C)nc3ccc(Cl)cn23)c1O`, for which the IC50 in the assay with HEK293 [1], in the assay with HEK293 [6] and with HEK293 [7] was > 20 µM (inactive) each time. Moreover, the EC50 in the assay “cells [2]” is > 350 µM (not active); in assay [3], 1.36 µM (active); in the assay on HEK293 [4], > 20 µM (inactive); in the assay “cells [5]” it was 6.42 µM (active); with Streptococcus, 7.14 µM (active); in [8] it was > 20 µM (inactive). Also, the values for the EC50 in [9] and in assay [10] were 3.25 µM (active) and > 160 µM (inactive), respectively. In addition, the AC50 with INS1 is 0.879 µM (active).
As to `Cc1nc(NC(=O)c2ccco2)sc1-c1csc(Nc2ccc(Cl)cc2Cl)n1`, the 50% effective concentration (EC50) in assay [11] is > 60 µM (not active); in [13] it was 0.537 µM (active). The half-maximal activity concentration (AC50) on Cytochrome P450 1A2 is 15.8 µM (inconclusive). Also, the values for the concentration for half-maximal inhibition (IC50) (in [12]; on Bcl-2-like protein 10) were 1.56 µM (active) and > 100 µM (inactive), respectively.
For the compound `Cc1[nH]c(=O)[nH]c(=S)c1C(=O)Nc1ccc(Cl)c(Cl)c1`, the IC50 in assay [14] is 9.67 µM (active).
As for `O=C(CSCc1ccc([N+](=O)[O-])cc1)N/N=C/c1ccncc1`, the IC50 at Bcl-2-related protein A1 is > 20 µM (inactive); in assay [15], 17.3 µM (active); in [16] it was > 20 µM (inactive).
As for `CCOc1ccc(C2CC(c3c(O)oc4ccccc4c3=O)=NN2c2ccccc2)cc1OC` (centres undefined), the 50% effective concentration (EC50) in assay [17] was 8.61 µM (active).
`O=C(c1ccc(S(=O)(=O)N2CCCC2)cc1)N1CCC(CN2C(=O)c3cccc4cccc(c34)C2=O)CC1`: the values for the IC50 (at Bcl-2-related protein A1; in assay [15]; in [16]) were > 20 µM (inactive), 6.28 µM (active) and 8.21 µM (active), respectively.
In the case of `CCOC(=O)c1nnc(-c2ccc(C)cc2)nc1Oc1ccc(Cl)cc1Cl`, the CC50 in assay [18] is 14.1 µM (active). In addition, the EC50 in assay [17] is 12.4 µM (inactive).
In the case of `O=C(O)c1ccccc1CSc1nnnn1-c1ccccc1`, the EC50 on Troponin, cardiac muscle was > 71.5 µM (inactive).
Turning to `C=CCOc1ccc(Br)cc1CNCC`, on Troponin, cardiac muscle, the EC50 was > 71.5 µM (inactive).

The IC50 is the point on the concentration scale where inhibition reaches its midpoint. What is called EC50 is the midpoint of the concentration-response curve. For orientation: AC50 means the concentration giving half of the maximal activity seen. A word on the CC50: it is the concentration at which the toxic effect on the cells reaches its halfway point.

Values taken from ChEMBL document CHEMBL1201862, “PubChem BioAssay data set” (2004).
